According to patent publication US8927717B1, “Thiochromeno[2,3-c]quinolin-12-one derivatives, preparation method and application thereof” (National Defense Medical Center, priority 2014, dated 2015):

Legend:
Format in all cases: cell-based
Details in all cases: 10^−5 molar
CCRF-CEM = system: CCRF-CEM
HL-60(TB) = system: HL-60(TB)
K-562 = system: K-562
RPMI-8226 = system: RPMI-8226
SR = system: SR
HOP-62 = system: HOP-62
NCI-H226 = system: NCI-H226
NCI-H460 = system: NCI-H460
NCI-H522 = system: NCI-H522
COLO 205 = system: COLO 205
HCT-116 = system: HCT-116
HCT-15 = system: HCT-15
HT29 = system: HT29
KM12 = assay: cells
SW-620 = system: SW-620
SF-295 = system: SF-295
SNB-19 = system: SNB-19
SNB-75 = system: SNB-75
U251 = system: U251
LOX IMVI = system: LOX IMVI
M14 = system: M14
SK-MEL-28 = system: SK-MEL-28
SK-MEL-5 = system: SK-MEL-5
OVCAR-5 = system: OVCAR-5
OVCAR-8 = system: OVCAR-8
NCI/ADR-RES = system: NCI/ADR-RES
SK-OV-3 = system: SK-OV-3
A498 = system: A498
RXF 393 = system: RXF 393
SN12C = system: SN12C
TK-10 = system: TK-10
PC-3 = system: PC-3
DU-145 = system: DU-145
MCF7 = system: MCF7
MDA-MB-231/ATCC = system: MDA-MB-231/ATCC
HS 578T = system: HS 578T
BT-549 = system: BT-549
T-47D = system: T-47D
60 cancer cell lines = assay: NCI 60-cell screen, SRB, whole panel (mean, delta, range)
[1] = Non-small cell lung cancer, 48 hours, SRB

## O=c1c2cc(Cl)ccc2sc2c(NCCc3ccccc3)nc3ccccc3c12 [Compound N30, 10-Chloro-6-(phenethylamino)-12H-thiochromeno[2,3-c]quinolin-12-one]
CCRF-CEM; CCRF-CEM
  Growth percent: 114.29%
HL-60(TB); HL-60(TB)
  Growth percent: 105.68%
K-562; K-562
  Growth percent: 82.82%
RPMI-8226; RPMI-8226
  Growth percent: 77.36%
SR; SR
  Growth percent: 89.88%
HOP-62; HOP-62
  Growth percent: 103.19%
NCI-H226; NCI-H226
  Growth percent: 77.00%
NCI-H460; NCI-H460
  Growth percent: 95.11%
NCI-H522; NCI-H522
  Growth percent: 93.93%
COLO 205; COLO 205
  Growth percent: 100.02%
HCT-116; HCT-116
  Growth percent: 85.77%
HCT-15; HCT-15
  Growth percent: 91.82%
HT29; HT29
  Growth percent: 109.15%
KM12; KM12
  Growth percent: 90.99%
SW-620; SW-620
  Growth percent: 93.45%
SF-295; SF-295
  Growth percent: 95.46%
SNB-19; SNB-19
  Growth percent: 100.6%
SNB-75; SNB-75
  Growth percent: 68.76%
U251; U251
  Growth percent: 96.78%
LOX IMVI; LOX IMVI
  Growth percent: 89.03%
M14; M14
  Growth percent: 97.97%
SK-MEL-28; SK-MEL-28
  Growth percent: 98.94%
SK-MEL-5; SK-MEL-5
  Growth percent: 89.49%
OVCAR-5; OVCAR-5
  Growth percent: 102.03%
OVCAR-8; OVCAR-8
  Growth percent: 95.61%
NCI/ADR-RES; NCI/ADR-RES
  Growth percent: 96.51%
SK-OV-3; SK-OV-3
  Growth percent: 102.16%
A498; A498
  Growth percent: 83.22%
RXF 393; RXF 393
  Growth percent: 96.74%
SN12C; SN12C
  Growth percent: 86.54%
TK-10; TK-10
  Growth percent: 122.13%
PC-3; PC-3
  Growth percent: 87.25%
DU-145; DU-145
  Growth percent: 100.17%
MCF7; MCF7
  Growth percent: 60.91%
MDA-MB-231/ATCC; MDA-MB-231/ATCC
  Growth percent: 79.55%
HS 578T; HS 578T
  Growth percent: 87.62%
BT-549; BT-549
  Growth percent: 106.85%
T-47D; T-47D
  Growth percent: 71.96%
60 cancer cell lines; delta over panel
  Growth percent, Delta: 32.31%
60 cancer cell lines; mean over panel
  Growth percent, Mean: 93.22%
60 cancer cell lines; range over panel
  Growth percent, Range: 61.70%

## CC(C)CC(C)Nc1nc2ccccc2c2c(=O)c3cc(Cl)ccc3sc12 (stereo not shown) [Compound N13, 10-Chloro-6-((4-methylpentan-2-yl)amino)-12H-thiochromeno[2,3-c]quinolin-12-one]
CCRF-CEM; Leukemia, 48 hours, SRB
  Growth percent CCRF-CEM: 98.57%
HL-60(TB); Leukemia, 48 hours, SRB
  Growth percent HL-60(TB): 103.96%
K-562; Leukemia, 48 hours, SRB
  Growth percent K-562: 106.64%
RPMI-8226; Leukemia, 48 hours, SRB
  Growth percent RPMI-8226: 97.78%
SR; Leukemia, 48 hours, SRB
  Growth percent SR: 97.29%
HOP-62; [1]
  Growth percent HOP-62: 88.69%
NCI-H226; [1]
  Growth percent NCI-H226: 87.55%
NCI-H460; [1]
  Growth percent NCI-H460: 95.17%
NCI-H522; [1]
  Growth percent NCI-H522: 102.30%
COLO 205; Colon cancer, 48 hours, SRB
  Growth percent COLO 205: 93.45%
HCT-116; Colon cancer, 48 hours, SRB
  Growth percent HCT-116: 90.30%
HCT-15; Colon cancer, 48 hours, SRB
  Growth percent HCT-15: 96.97%
HT29; Colon cancer, 48 hours, SRB
  Growth percent HT29: 121.02%
KM12; Colon cancer, 48 hours, SRB
  Growth percent KM12: 105.66%
SW-620; Colon cancer, 48 hours, SRB
  Growth percent SW-620: 92.80%
SF-295; CNS cancer, 48 hours, SRB
  Growth percent SF-295: 95.92%
SNB-19; CNS cancer, 48 hours, SRB
  Growth percent SNB-19: 106.79%
SNB-75; CNS cancer, 48 hours, SRB
  Growth percent SNB-75: 85.02%
U251; CNS cancer, 48 hours, SRB
  Growth percent U251: 105.12%
LOX IMVI; Melanoma, 48 hours, SRB
  Growth percent LOX IMVI: 98.90%
M14; Melanoma, 48 hours, SRB
  Growth percent M14: 94.27%
SK-MEL-28; Melanoma, 48 hours, SRB
  Growth percent SK-MEL-28: 106.87%
SK-MEL-5; Melanoma, 48 hours, SRB
  Growth percent SK-MEL-5: 90.71%
OVCAR-5; Ovarian cancer, 48 hours, SRB
  Growth percent OVCAR-5: 101.36%
OVCAR-8; Ovarian cancer, 48 hours, SRB
  Growth percent OVCAR-8: 92.79%
NCI/ADR-RES; Ovarian cancer, 48 hours, SRB
  Growth percent NCI/ADR-RES: 98.47%
SK-OV-3; Ovarian cancer, 48 hours, SRB
  Growth percent SK-OV-3: 86.70%
A498; Renal cancer, 48 hours, SRB
  Growth percent A498: 75.01%
RXF 393; Renal cancer, 48 hours, SRB
  Growth percent RXF 393: 98.67%
SN12C; Renal cancer, 48 hours, SRB
  Growth percent SN12C: 95.14%
TK-10; Renal cancer, 48 hours, SRB
  Growth percent TK-10: 123.23%
PC-3; Prostate cancer, 48 hours, SRB
  Growth percent PC-3: 86.33%
DU-145; Prostate cancer, 48 hours, SRB
  Growth percent DU-145: 113.48%
MCF7; Breast cancer, 48 hours, SRB
  Growth percent MCF7 (Table 2: MCF): 73.82%
MDA-MB-231/ATCC; Breast cancer, 48 hours, SRB
  Growth percent MDA-MB-231/ATCC: 84.22%
HS 578T; Breast cancer, 48 hours, SRB
  Growth percent HS 578T: 89.33%
BT-549; Breast cancer, 48 hours, SRB
  Growth percent BT-549: 103.61%
T-47D; Breast cancer, 48 hours, SRB
  Growth percent T-47D: 73.76%
60 cancer cell lines; delta over the cell panel, 48 hours, SRB
  Growth percent, Delta: 22.57%
60 cancer cell lines; mean over the cell panel, 48 hours, SRB
  Growth percent, Mean: 96.33%
60 cancer cell lines; range over the cell panel, 48 hours, SRB
  Growth percent, Range: 49.47%
